From US20090311685A1, “NMU-GHSR1b/NTSR1 oncogenic signaling pathway as a therapeutic target for lung cancer” (Oncotherapy Science, Inc, priority 2006, published 2009)

Experiments:
[1] = test system: LC319 cells; experiment: Flow cytometry of cell cycle after siRNA transfection; assay type: cell-based, human
Method: Cells were plated at a density of 5×10^5 cells/100-mm dish, transfected with siRNA-expression vectors, and cultured in the presence of appropriate concentrations of geneticin. Four days after transfection, the culture medium was replaced with geneticin-free medium. Cells were incubated for additional 24 hours, then trypsinized, collected in PBS, and fixed in 70% cold ethanol for 30 min. After treatment with 100 μg/ml RNase (Sigma-Aldrich Co.), the cells were stained with 50 μg/ml propidium iodide (Sigma-Aldrich Co.) in PBS. Flow cytometry was performed on Becton Dickinson FACSCalibur and analyzed by Cell Quest software (Becton Dickinson Biosciences). The percentage of nuclei in G0/G1, S, and G2/M phases on the cell cycle and the sub-GI population, were determined from at least 20,000 ungated cells.

[2] = test system: COS-7 cells; experiment: Autocrine assay: growth of cells cultured with NMU-25 (MTT, colony formation); assay type: cell-based; details: 0.3 to 15 μM, vs BSA control, 144 hours
Method: To confirm the autocrine function of NMU in the growth of mammalian cells, COS-7 cells were cultured in medium containing the active form of a 25-amino-acid polypeptide of NMU (NMU-25; Sigma-Aldrich Co.) at final concentrations of 0.3 to 15 μM. The same concentrations of BSA served as controls. The peptides/proteins were added every 48 hours for 6 days. At the 144-hours time point, cell proliferation was evaluated by MTT and colony-formation assays.

[3] = target: T1, endogenous GHSR1b and NTSR1 on LC319 cells (Homo sapiens, UniProt P30989+Q92847); experiment: Ligand-receptor binding assay with Cy5-labeled NMU-25; details: 10-fold excess unlabeled NMU-25
T1 construct: endogenous in cells; host or cells: LC319
Method: (§1) To confirm the binding of NMU-25 to endogenous candidate receptors on the NSCLC cell, a receptor-ligand binding assay using LC319 and PC14 cells that express GHSR1b and NTSR1, but not NMU1R and NMU2R were performed. Specifically, trypsinized cells were seeded onto a 96-well (with black wall and clear bottom) microtiter plates 24 hours prior to the assay. The medium was removed and the cells were incubated with CyS-labeled NMU-25 peptide (1 μM) with or without the addition of 10-fold excess unlabeled NMU-25 peptide as the competitor. The plate was incubated in dark for 24 hours at 37° C. and then scanned on 8200 Cellular Detection System (Applied Biosystems) to quantify the amount of CyS fluorescence probe bound to the surface of each cell. (15) Immunocytochemistry for Internalized Receptors

[4] = target: T2, endogenous GHSR1b and NTSR1 on PC14 cells (Homo sapiens, UniProt P30989+Q92847); experiment: as above; details: 10-fold excess unlabeled NMU-25
T2 construct: endogenous in cells; host or cells: PC14
Method: as §1

[5] = test system: LC319 cells; experiment: Measurement of cAMP levels (cAMP EIA); assay type: cell-based, human
Method: (§2) Trypsinized LC319, REF-LC-AI, NCI-H358 and SK-MED-1 cells were seeded onto a 96-well microtiter plate (5.0×10^4 cells) and cultured in appropriate medium supplemented with 10% FCS for 24 hours, and then the medium was changed to serum free/1 mM IBMX (isobutylmethylxanthine) 20 min prior to the assay. Next, the cells were incubated with individual concentrations of peptides (NMU-25, GHRL, or NTS) for 20 min and cAMP levels of the cells were measured using cAMP EIA System (GE Healthcare Bio-sciences).

[6] = test system: NCI-H358 cells; experiment: Measurement of cAMP levels (cAMP EIA); assay type: cell-based, human; details: expressing either of the receptors, 3 to 50 μM
Method: as §2

[7] = test system: RERF-LC-AI cells; experiment: Measurement of cAMP levels (cAMP EIA); assay type: cell-based, human; details: both receptors at low levels, 3 to 50 μM
Method: as §2

[8] = test system: SK-MES-1 cells; experiment: Measurement of cAMP levels (cAMP EIA); assay type: cell-based, human; details: expressing either of the receptors, 3 to 50 μM
Method: as §2

[9] = target: T3, GHSR1b/NTSR1 (Homo sapiens, UniProt P30989+Q92847, A200T); experiment: Immunocytochemistry for internalized receptors, transfected COS-7 cells; assay type: cell-based; details: COS-7 cells with introduced receptors, 10 μM, time-dependent
T3 construct: expressed in transfected cells; host or cells: COS-7
Method: To investigate the association of NMU-25 with its candidate receptors, GHSR1b and NTSR1, the following experiments were performed. The entire coding region of each of the receptor genes was amplified by RT-PCR using primers: […]
The products were digested with EcoRI and BamHI and cloned into appropriate sites of p3XFLAG-CMV10 vector (Sigma-Aldrich Co.). COS-7 cells were transfected with FLAG-tagged GHSR1b or NTSR1 expression plasmid using FuGENE 6 Transfection Reagent as described above. The cells subjected to internalization assays were exposed to NMU-25 (10 μM) for 120 min. The cells were then fixed with 4% paraformaldehyde solution for 15 min at 37° C., and washed with PBS(−). Specimens were incubated in PBS(−) containing 0.1% Triton X-100 for 10 min and subsequently washed with PBS(−). Prior to primary antibody reaction, the cells were incubated in CAS-BLOCK (ZYMED Laboratories Inc.) for 10 min to block non-specific antibody binding. Then, the cells were incubated with both rabbit polyclonal and anti-GHSR antibody and goat polyclonal anti-NTSR1 antibody. The antibodies were stained with both anti-rabbit secondary antibody conjugated to Alexa Fluor 488 (Molecular Probes) and anti-goat secondary antibody conjugated to Alexa Fluor 594 (Molecular Probes). […] Images were viewed and assessed using confocal microscopy (TCS SP2 AOBS; Leica Microsystems).

[10] = target: T4, GHSR1b/NTSR1 (Homo sapiens, UniProt P30989+Q92847); experiment: Immunocytochemistry for internalized receptors, endogenous receptors in LC319 cells; assay type: cell-based
T4 construct: endogenous in cells; host or cells: LC319

[11] = test system: FOXM1; experiment: Induction of FOXM1 expression by NMU ligand-receptor signaling in LC319 cells; assay type: cell-based, human; details: 25 μM, vs BSA control
Method: Total RNA was extracted from cultured cells and clinical tissues using Trizol reagent (Life Technologies, Inc.) according to the manufacturer's protocol. Extracted RNAs and normal human tissue poly(A) RNAs were treated with DNaseI (Nippon Gene) and were reverse-transcribed using oligo(dT)20 primer and SuperSpcript II reverse transcriptase (Invitrogen). Semiquantitative RT-PCR experiments were carried out with the following synthesized gene-specific primers and beta-actin (ACTB)-specific primers as internal control: […]

[12] = target: T5, FLAG-tagged NTSR1 (Homo sapiens (Human), UniProt P30989 1-418); experiment: DSP cross-linking, immunoprecipitation and Western blot of transfected COS-7 cells
T5 construct: Transiently expressed in COS-7 cells; COS-7 cells also express GHSR1b and NTSR1 endogenously, so in the cells transfected only with FLAG-GHSR1b the NTSR1 partner is the endogenous COS-7 protein; also called NTSR1 (p3XFLAG-CMV10 construct); not shown: FLAG tag from the p3XFLAG-CMV10 vector
Method: (§3) Cultured cells were washed twice with ice-cold PBS(−) and incubated with 5 mM Dithiobis [succinimidyl propionate] (DSP) (PIERCE) for 60 min in PBS(−) on ice. The reaction was quenched by incubation with Stop solution (1 M Tris, pH 7.5) at a final concentration of 50 mM Tris for 15 min on ice. The cells were then washed twice with ice-cold PBS(−) and lysed in ice-cold Tx/G buffer (300 mM NaCl, 1% Triton X-100, 10% glycerol, 1.5 MM MgCl₂, 1 mM CaCl₂, and 10 mM iodoacetamide in 50 mM Tris-Cl, pH 7.4) containing protease inhibitor (Protease Inhibitor Cocktail Set III; Calbiochem) for 60 min on ice. […] The solutions were subjected to SDS-PAGE, and receptor proteins were detected by Western blot analysis using mouse monoclonal anti-FLAG M2 antibody, goat polyclonal anti-NTSR1 antibody, or rabbit polyclonal anti-GHSR antibody as the primary antibody, and rec-Protein G-Peroxidase Conjugate (ZYMED Laboratories, Inc.) to detect the antigen-antibody complexes.
To examine direct association between GHSR1b and NTSR1, either or both of FLAG-tagged GHSR1b and FLAG-tagged NTSR1 were transiently expressed in COS-7 cells (FIG. 2A depicts the data of transient GHSR1b expression, and FIG. 2B the expression of both receptors). […] No such species were detected when empty vector (mock) was transfected to COS-7 cells as the negative control.

[13] = target: the molecule itself; experiment: anti-FLAG immunoprecipitation, SDS-PAGE, immunoblot with anti-FLAG, anti-NTSR1 or anti-GHSR antibody
Source text: Cell lysates from COS-7 cells that transiently express the FLAG-tagged GHSR1b, and those co-expressing both the FLAG-tagged GHSR1b and NTSR1 were immunoprecipitated with anti-FLAG antibody, subjected for SDS-PAGE, and then immunoblotted with anti-FLAG antibody (A), with anti-NTSR1 antibody (B), or with anti-GHSR antibody (C). The arrows indicate the monomer, heterodimer, and homodimers of the receptors. The molecular weight (kDa) markers are indicated on the left side of individual panels. Non-specific immunoreactive protein band detected by anti-FLAG antibody is indicated with asterisks.
as §3, with “ice.” for “ice. The cells were then washed twice with ice-cold PBS(−) and lysed in ice-cold Tx/G buffer (300 mM NaCl, 1% Triton X-100, 10% glycerol, 1.5 MM MgCl₂, 1 mM CaCl₂, and 10 mM iodoacetamide in 50 mM Tris-Cl, pH 7.4) containing protease inhibitor (Protease Inhibitor Cocktail Set III; Calbiochem) for 60 min on ice.”

[14] = test system: COS-7 cells; experiment: Flow-cytometric binding of rhodamine-labeled NMU-25 to cells; details: 0.5-10 μM, 2 hours at room temperature
Method: (11) Cell-Growth and Colony-Formation Assays COS-7 transfectants that stably express NMU were seeded onto 6-well plates (5×10^4 cells/well), and maintained in medium containing 10% FCS and 0.4 mg/ml geneticin for 24, 48, 72, 96, 120, and 144 hours. At each time point, cell proliferation was evaluated by MTT assay using Cell Counting Kit (WAKO). Colonies were counted at 144 hours. All experiments were done in triplicate. Interaction of NMU-25 with COS-7 cells were examined by flow-cytometric analysis. Specifically, subconfluent cells were harvested in Cell Dissociation Solution (Sigma-Aldrich Co.) and suspended in DMEM. Then, 1×10^6 cells/microtube were washed with assay buffer (PBS(−) with 10 mM MgCl2, 2 mM EDTA, and 0.1% BSA), and the cells were incubated with 0.5-10 μM rhodamine-labeled NMU-25 peptide (NMU-25-rhodamine; Phoenix Pharmaceuticals, Inc.) in assay buffer for 2 hours at room temperature. Subsequently, the cells were washed twice with assay buffer.
To detect the population of cells binding to rhodamine-labeled NMU-25, flow cytometry was performed using Becton Dickinson FACSCalibur and analyzed by Cell Quest software. The growth effect of NMU on NSCLC cells was also examined using LC319 cells transiently transfected with plasmids expressing NMU or mock plasmids. The cells were cultured in RPMI containing 10% FCS and geneticin (1 mg/ml) for 18 days, and colonies were counted.

T3 sequence (P30989 whole entry A200T, one chain of several): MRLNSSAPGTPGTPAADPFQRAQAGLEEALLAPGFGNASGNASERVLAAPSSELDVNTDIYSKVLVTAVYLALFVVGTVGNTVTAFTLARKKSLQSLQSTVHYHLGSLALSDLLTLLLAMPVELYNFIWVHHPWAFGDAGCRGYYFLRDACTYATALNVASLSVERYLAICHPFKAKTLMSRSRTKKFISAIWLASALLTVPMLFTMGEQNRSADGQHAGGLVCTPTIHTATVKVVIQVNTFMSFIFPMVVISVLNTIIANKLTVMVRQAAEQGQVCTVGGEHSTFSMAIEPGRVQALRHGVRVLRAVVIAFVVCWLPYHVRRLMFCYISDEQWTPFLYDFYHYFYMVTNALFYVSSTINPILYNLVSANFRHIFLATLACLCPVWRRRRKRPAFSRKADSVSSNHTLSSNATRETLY
T2 sequence (P30989 whole entry, one chain of several): as the sequence (P30989 whole entry A200T, one chain of several) above, with T200A counted along it
T4 sequence (P30989 whole entry, one chain of several): as the sequence (P30989 whole entry A200T, one chain of several) above, with T200A counted along it
T1 sequence (P30989 whole entry, one chain of several): as the sequence (P30989 whole entry A200T, one chain of several) above, with T200A counted along it
T5 sequence (P30989 whole entry A200T): as the sequence (P30989 whole entry A200T, one chain of several) above

Question: With “si-EGFP: control siRNA against enhanced green fluorescent protein gene, 5′-GAAGCAGCACGACTTCTTC-3′ (SEQ ID NO: 46) (chemistry not given here)” as the molecule, how does the sub-GI fraction [1] read?
Answer: Its sub-GI fraction is 11.2%.

Question: With “NMU-25: active form of a 25-amino-acid polypeptide of NMU (Sigma-Aldrich Co.) (FRVDEEFQSPFASQSRGYFLFRPRN)” as the molecule, how does the “cell growth (MTT assay)” value [2] read?
Answer: The value was “enhanced cell growth in a dose-dependent manner”.

Question: What about the “cell growth (colony-formation assay)” value [2] of the same molecule?
Answer: Its value is “enhanced cell growth in a dose-dependent manner”.

Question: What about the “binding activity of Cy5-labeled NMU-25 with unlabeled competitor” value [3] of the same molecule?
Answer: The value was “inhibited”.

Question: What about the “binding activity of Cy5-labeled NMU-25 with unlabeled competitor” value [4] of the same molecule?
Answer: The value was “inhibited”.

Question: And the cAMP production ([5]; final concentrations of 3 to 100 μM)?
Answer: The cAMP production was “Enhancement of cAMP production”.

Question: And the “intracellular cAMP production by NMU-25 (FIG. 3A)” value ([5]; high levels of both receptors, 3 to 50 μM)?
Answer: The value was “marked and reproducible cAMP accumulation”.

Question: And the “intracellular cAMP production by NMU-25 (FIG. 3C)” value [6]?
Answer: Its value is “did not show detectable cAMP production”.

Question: What about the “intracellular cAMP production by NMU-25 (FIG. 3B)” value [7] of the same molecule?
Answer: Its value is “not significant but low cAMP production”.

Question: And the “intracellular cAMP production by NMU-25 (FIG. 3D)” value [8]?
Answer: Its value is “did not show detectable cAMP production”.

Question: What about the “subcellular distribution of GHSR1b and NTSR1 after stimulation” value [9] of the same molecule?
Answer: Its value is “co-internalized”.

Question: And the “subcellular distribution of GHSR1b and NTSR1 after stimulation” value [10]?
Answer: The value was “induced co-internalization”.

Question: What about the “expression of FOXM1” value [11] of the same molecule?
Answer: The value was “enhanced expression of FOXM1”.

B1: FLAG-tagged GHSR1b (receptor)
chain: MWNATPSEEPGFNLTLADLDWDASPGNDSLGDELLQLFPAPLLAGVTATCVALFVVGIAGNLLTMLVVSRFRELRTTTNLYLSSMAFSDLLIFLCMPLDLVRLWQYRPWNFGDLLCKLFQFVSESCTYATVLTITALSVERYFAICFPLRAKVVVTKGRVKLVIFVIWAVAFCSAGPIFVLVGVEHENGTDPWDTNECRPTEFAVRSGLLTVMVWVSSIFFFLPVFCLTVLYSLIGRKLWRRRRGDAVVGASLRDQNHKQTVKMLGGSQRALRLSLAGPILSLCLLPSL
notes: Transiently expressed in COS-7 cells; Cross-linked with DSP, immunoprecipitated with anti-FLAG beads and blotted; also called GHSR1b (p3XFLAG-CMV10 construct); not shown: FLAG tag from the p3XFLAG-CMV10 vector
Question: What does the source list for B1?
Answer: binding result [12]: binds; binding result [13]: binds

B2: rhodamine-labeled NMU-25 peptide: rhodamine-labeled NMU-25 peptide (Phoenix Pharmaceuticals, Inc.) (conjugate)
peptide: MLRTESCRPRSPAGQVAAASPLLLLLLLLAWCAGACRGAPILPQGLQPEQQLQLWNEIDDTCSSFLSIDSQPQASNALEELCFMIMGMLPKPQEQDEKDNTKRFLFHYSKTQKLGKSNVVSSVVHPLLQLVPHLHERRMKRFRVDEEFQSPFASQSRGYFLFRPRNGRRSAGFI
Question: Which “binding to the cell surface (flow cytometry)” value [14] does the source give for B2 here?
Answer: The value was “bound to the surface of COS-7 cells in a dose-dependent manner”.
